Experimental data from publication PMC11374673, “Discovery of isoquinoline sulfonamides as allosteric gyrase inhibitors with activity against fluoroquinolone-resistant bacteria” (Nature Chemistry, 2024).
Values joined by “and” are separate entries in the source; they are usually repeats but may differ in a detail not shown here. Equal entries are not always repeated.

Test system: E. coli W3110
Experiment: Checkerboard assay with PMBN;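 for checkerboard plate reading, Average values: OD600 read after 20 h incubation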;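 for checkerboard plate reading, replicate wells: OD600 read after 20 h incubation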

O=S(=O)(NC[C@@H]1CC[C@H](c2ccc(-c3cccnc3)cc2)N1)c1cccc2cnccc12 [LEI-800]
MIC (Escherichia coli, W3110): 3.13 µM
checkerboard plate reading, replicate wells (LEI-800 0.0488281 µM + PMBN 0 µM): 0.6247 and 0.5887 and 0.5873
checkerboard plate reading, Average values (LEI-800 0.0488281 µM + PMBN 0 µM (by position)): 0.6003
checkerboard plate reading, replicate wells (LEI-800 0.0488281 µM + PMBN 0.5 µM): 0.5854 and 0.5839 and 0.7031
checkerboard plate reading, Average values (LEI-800 0.0488281 µM + PMBN 0.5 µM (by position)): 0.5871
checkerboard plate reading, replicate wells (LEI-800 0.0488281 µM + PMBN 1 µM): 0.5898 and 0.5581 and 0.551
checkerboard plate reading, Average values (LEI-800 0.0488281 µM + PMBN 1 µM (by position)): 0.5855
checkerboard plate reading, replicate wells (LEI-800 0.0488281 µM + PMBN 2 µM): 0.674 and 0.6137 and 0.6739
checkerboard plate reading, Average values (LEI-800 0.0488281 µM + PMBN 2 µM (by position)): 0.6241
checkerboard plate reading, replicate wells (LEI-800 0.0488281 µM + PMBN 4 µM): 0.5444 and 0.5786 and 0.5784
checkerboard plate reading, Average values (LEI-800 0.0488281 µM + PMBN 4 µM (by position)): 0.615
checkerboard plate reading, replicate wells (LEI-800 0.0488281 µM + PMBN 8 µM): 0.315 and 0.3156 and 0.322
checkerboard plate reading, Average values (LEI-800 0.0488281 µM + PMBN 8 µM (by position)): 0.6041
checkerboard plate reading, replicate wells (LEI-800 0.0488281 µM + PMBN 16 µM): 0.3097 and 0.3235 and 0.4832
checkerboard plate reading, Average values (LEI-800 0.0488281 µM + PMBN 16 µM (by position)): 0.5663
checkerboard plate reading, replicate wells (LEI-800 0.0488281 µM + PMBN 32 µM): 0.3631 and 0.3487 and 0.3575
checkerboard plate reading, Average values (LEI-800 0.0488281 µM + PMBN 32 µM (by position)): 0.6049
checkerboard plate reading, replicate wells (LEI-800 0.0976562 µM + PMBN 0 µM): 0.5677 and 0.5498 and 0.5376
checkerboard plate reading, Average values (LEI-800 0.0976562 µM + PMBN 0 µM (by position)): 0.5517
checkerboard plate reading, replicate wells (LEI-800 0.0976562 µM + PMBN 0.5 µM): 0.5272 and 0.5363 and 0.6045
checkerboard plate reading, Average values (LEI-800 0.0976562 µM + PMBN 0.5 µM (by position)): 0.5382
checkerboard plate reading, replicate wells (LEI-800 0.0976562 µM + PMBN 1 µM): 0.5455 and 0.5265 and 0.5304
checkerboard plate reading, Average values (LEI-800 0.0976562 µM + PMBN 1 µM (by position)): 0.5337
checkerboard plate reading, replicate wells (LEI-800 0.0976562 µM + PMBN 2 µM): 0.528 and 0.523 and 0.4812
checkerboard plate reading, Average values (LEI-800 0.0976562 µM + PMBN 2 µM (by position)): 0.556
checkerboard plate reading, replicate wells (LEI-800 0.0976562 µM + PMBN 4 µM): 0.3324 and 0.3512 and 0.3333
checkerboard plate reading, Average values (LEI-800 0.0976562 µM + PMBN 4 µM (by position)): 0.5558
checkerboard plate reading, replicate wells (LEI-800 0.0976562 µM + PMBN 8 µM): 0.2503 and 0.2429 and 0.246
checkerboard plate reading, Average values (LEI-800 0.0976562 µM + PMBN 8 µM (by position)): 0.5538
checkerboard plate reading, replicate wells (LEI-800 0.0976562 µM + PMBN 16 µM): 0.2399 and 0.265 and 0.2959
checkerboard plate reading, Average values (LEI-800 0.0976562 µM + PMBN 16 µM (by position)): 0.5341
checkerboard plate reading, replicate wells (LEI-800 0.0976562 µM + PMBN 32 µM): 0.2697 and 0.2568 and 0.2475
checkerboard plate reading, Average values (LEI-800 0.0976562 µM + PMBN 32 µM (by position)): 0.5346
checkerboard plate reading, Average values (LEI-800 0.195312 µM + PMBN 0 µM (by position)): 0.5248
checkerboard plate reading, Average values (LEI-800 0.195312 µM + PMBN 0.5 µM (by position)): 0.5135
checkerboard plate reading, Average values (LEI-800 0.195312 µM + PMBN 1 µM (by position)): 0.5141
checkerboard plate reading, Average values (LEI-800 0.195312 µM + PMBN 2 µM (by position)): 0.5165
checkerboard plate reading, Average values (LEI-800 0.195312 µM + PMBN 4 µM (by position)): 0.4968
checkerboard plate reading, Average values (LEI-800 0.195312 µM + PMBN 8 µM (by position)): 0.478
checkerboard plate reading, Average values (LEI-800 0.195312 µM + PMBN 16 µM (by position)): 0.4685
checkerboard plate reading, Average values (LEI-800 0.195312 µM + PMBN 32 µM (by position)): 0.4392
checkerboard plate reading, Average values (LEI-800 0.390625 µM + PMBN 0 µM (by position)): 0.4881
checkerboard plate reading, Average values (LEI-800 0.390625 µM + PMBN 0.5 µM (by position)): 0.4714
checkerboard plate reading, Average values (LEI-800 0.390625 µM + PMBN 1 µM (by position)): 0.4607
checkerboard plate reading, Average values (LEI-800 0.390625 µM + PMBN 2 µM (by position)): 0.4461
checkerboard plate reading, Average values (LEI-800 0.390625 µM + PMBN 4 µM (by position)): 0.399
checkerboard plate reading, Average values (LEI-800 0.390625 µM + PMBN 8 µM (by position)): 0.3657
checkerboard plate reading, Average values (LEI-800 0.390625 µM + PMBN 16 µM (by position)): 0.3222
checkerboard plate reading, Average values (LEI-800 0.390625 µM + PMBN 32 µM (by position)): 0.2778
checkerboard plate reading, Average values (LEI-800 0.78125 µM + PMBN 0 µM (by position)): 0.4191
